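Growth conditions: 96-well plates. Treatment: test compound, 48 hours, 5 concentrations. Analysis: linear interpolation between bracketing concentrations; unreached endpoints set to highest concentration. GI50 = concentration required for 50% inhibition of growth. TGI: concentration producing complete growth inhibition.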
Columns and labels:
Experiment in all cases: NCI anticancer screen, dose series, 48 h; in the data active = GI50 below about 0.43 µM; inactive = the rest
HT29 colon = tested on: HT29 colon
MCF7 breast = tested on: MCF7 breast
EKVX NSCLC = tested on: EKVX NSCLC
SK-MEL-2 melanoma = tested on: SK-MEL-2 melanoma
K-562 leukemia = tested on: K-562 leukemia
HOP-92 NSCLC = tested on: HOP-92 NSCLC
OVCAR-3 ovarian = tested on: OVCAR-3 ovarian
NCI-H23 lung = tested on: NCI-H23 lung
U251 CNS = tested on: U251 CNS
UACC-62 melanoma = tested on: UACC-62 melanoma
OVCAR-4 ovarian = tested on: OVCAR-4 ovarian
SK-OV-3 ovarian = tested on: SK-OV-3 ovarian
RPMI-8226 leukemia = tested on: RPMI-8226 leukemia
MOLT-4 leukemia = tested on: MOLT-4 leukemia
BT-549 breast = tested on: BT-549 breast
MDA-MB-435 = tested on: MDA-MB-435
IGROV1 ovarian = tested on: IGROV1 ovarian
SK-MEL-28 melanoma = tested on: SK-MEL-28 melanoma
HL-60(TB) leukemia = tested on: HL-60(TB) leukemia
HCC-2998 colon = tested on: HCC-2998 colon
NCI-H460 lung = tested on: NCI-H460 lung
A549 NSCLC = tested on: A549 NSCLC
SW-620 colon = tested on: SW-620 colon
RXF 393 renal = tested on: RXF 393 renal
TK-10 renal = tested on: TK-10 renal
OVCAR-5 ovarian = tested on: OVCAR-5 ovarian
UACC-257 melanoma = tested on: UACC-257 melanoma
SR leukemia = tested on: SR leukemia
UO-31 renal = tested on: UO-31 renal
SK-MEL-5 melanoma = tested on: SK-MEL-5 melanoma
SF-539 CNS = tested on: SF-539 CNS
PC-3 prostate = tested on: PC-3 prostate
HCT-15 colon = tested on: HCT-15 colon
SNB-19 CNS = tested on: SNB-19 CNS
M14 melanoma = tested on: M14 melanoma
NCI-H226 lung = tested on: NCI-H226 lung
CAKI-1 renal = tested on: CAKI-1 renal
A498 renal = tested on: A498 renal
MALME-3M melanoma = tested on: MALME-3M melanoma

CSc1n[nH]c2c1c(C)nn2-c1ccccc1
> 100 µM: TGI (HT29 colon) | TGI (MCF7 breast) | TGI (EKVX NSCLC) | TGI (SK-MEL-2 melanoma) | TGI (K-562 leukemia) | TGI (HOP-92 NSCLC) | TGI (OVCAR-3 ovarian) | TGI (NCI-H23 lung) | TGI (U251 CNS) | TGI (UACC-62 melanoma) | TGI (OVCAR-4 ovarian) | TGI (SK-OV-3 ovarian) | TGI (RPMI-8226 leukemia) | TGI (MOLT-4 leukemia) | TGI (BT-549 breast) | TGI (MDA-MB-435) | TGI (IGROV1 ovarian) | TGI (SK-MEL-28 melanoma) | TGI (HL-60(TB) leukemia) | TGI (HCC-2998 colon) | TGI (NCI-H460 lung) | TGI (A549 NSCLC) | TGI (SW-620 colon) | TGI (RXF 393 renal) | TGI (TK-10 renal) | TGI (OVCAR-5 ovarian) | TGI (UACC-257 melanoma) | TGI (SR leukemia) | TGI (UO-31 renal) | TGI (SK-MEL-5 melanoma) | TGI (SF-539 CNS) | TGI (PC-3 prostate) | TGI (HCT-15 colon) | TGI (SNB-19 CNS) | TGI (M14 melanoma) | TGI (NCI-H226 lung)

C=C(C)[C@@H]1CC[C@]2(C)[C@H](CC=C3[C@@H]4CC(C)(C)CC[C@]4(CO)CC[C@]32C)[C@@]1(C)CCCN
2.96 µM: TGI (MALME-3M melanoma)
inactive: GI50 (SK-MEL-2 melanoma) 1.98 µM | GI50 (K-562 leukemia) 2.17 µM | GI50 (UACC-62 melanoma) 1.68 µM | GI50 (CAKI-1 renal) 1.73 µM | GI50 (SK-OV-3 ovarian) 1.88 µM | GI50 (MDA-MB-435) 1.62 µM | GI50 (A498 renal) 1.49 µM | GI50 (MALME-3M melanoma) 1.55 µM | GI50 (SK-MEL-5 melanoma) 1.68 µM | GI50 (SF-539 CNS) 1.65 µM | GI50 (M14 melanoma) 1.65 µM | GI50 (NCI-H226 lung) 5.31 µM
3.05 µM: TGI (UACC-62 melanoma) | TGI (SK-MEL-5 melanoma)
3.33 µM: TGI (SK-OV-3 ovarian)
8.26 µM: TGI (K-562 leukemia)
2.81 µM: TGI (A498 renal)
27.7 µM: TGI (NCI-H226 lung)
3.02 µM: TGI (SF-539 CNS)
3.1 µM: TGI (CAKI-1 renal) | TGI (M14 melanoma)
3.58 µM: TGI (SK-MEL-2 melanoma)
2.98 µM: TGI (MDA-MB-435)
